Key:
IL-6 = assay: LPS-stimulated whole bovine blood assay, MSD cytokine detection; format: cell-based; conditions: Bos taurus, LPS-stimulated bovine whole blood; read-out: IL-6 (IC50 μM)
Source text: In order to correlate RNA sequencing data to cytokine changes the whole blood assay was utilized. […] The enhancement result represents an overall stimulation of cytokine levels due to cellular stress or potential toxicity with increasing concentrations of the compound, representing a typical bell shape response curve for immunomodulatory activity.

[1] = tested on: BRD pathogens, M. haemolytica and P. multocida; assay: MIC screening panel of BRD pathogens (antibacterial / non-antibacterial); conditions: read-out: antibacterial / non-antibacterial (MIC for the BRD pathogens)
IL-1β = assay: LPS-stimulated whole bovine blood assay, MSD cytokine detection; format: cell-based; conditions: overstimulation of IL-1β, LPS-stimulated bovine whole blood
TNF-α = assay: as above; format: cell-based; conditions: Bos taurus, LPS-stimulated bovine whole blood; read-out: TNF-α (IC50 μM)

| Compound | IC50 (IL-6) [µM] | MIC [1] [µg/mL] | IL-1β OS of LPS (IL-1β) [µM] | IC50 (TNF-α) [µM] |
| --- | --- | --- | --- | --- |
| CC[C@H]1OC(=O)[C@H](C)[C@@H](O[C@H]2C[C@@](C)(OC)[C@](O)(CNCC3CCN(C(C)=O)CC3)[C@H](C)O2)[C@H](C)[C@@H](O[C@@H]2O[C@H](C)C[C@H](N(C)C(=O)N(C)c3ccccc3)[C@H]2O)[C@](C)(O)C[C@@H](C)CN[C@H](C)[C@@H](O)[C@]1(C)O [Example H-31, 1-((2S,3R,4S,6R)-2-(((2R,3S,4R,5R,8R,10R,11R,12S,13S,14R)-13-(((2R,4R,5S,6S)-5-((((1-acetylpiperidin-4-yl)methyl)amino)methyl)-5-hydroxy-4-methoxy-4,6-dimethyltetrahydro-2H-pyran-2-yl)oxy)-2-ethyl-3,4,10-trihydroxy-3,5,8,10,12,14-hexamethyl-15-oxo-1-oxa-6-azacyclopentadecan-11-yl)oxy)-3-hydroxy-6-methyltetrahydro-2H-pyran-4-yl)-1,3-dimethyl-3-phenylurea] | 41 | > 64 | 81 | 41 |
| CC[C@H]1OC(=O)[C@H](C)[C@@H](O[C@H]2C[C@@](C)(OC)[C@@H](O)[C@H](C)O2)[C@H](C)[C@@H](O[C@@H]2O[C@H](C)C[C@H](N(C)C(=O)Nc3ccc(C(F)(F)F)cc3)[C@H]2O)[C@](C)(O)C[C@@H](C)CN(C)[C@H](C)[C@@H](O)[C@]1(C)O [Example B-8, 1-((2S,3R,4S,6R)-2-(((2R,3S,4R,5R,8R,10R,11R,12S,13S,14R)-2-ethyl-3,4,10-trihydroxy-13-(((2R,4R,5S,6S)-5-hydroxy-4-methoxy-4,6-dimethyltetrahydro-2H-pyran-2-yl)oxy)-3,5,6,8,10,12,14-heptamethyl-15-oxo-1-oxa-6-azacyclopentadecan-11-yl)oxy)-3-hydroxy-6-methyltetrahydro-2H-pyran-4-yl)-1-methyl-3-(4-(trifluoromethyl)phenyl)urea] | 8 | > 64 | 6 | 2 |
| CC[C@H]1OC(=O)[C@H](C)[C@@H](O[C@H]2C[C@@](C)(OC)[C@](O)(CNCC(C)C)[C@H](C)O2)[C@H](C)[C@@H](O[C@@H]2O[C@H](C)C[C@H](N(C)C(=O)N(C)c3ccccc3)[C@H]2O)[C@](C)(O)C[C@@H](C)CN[C@H](C)[C@@H](O)[C@]1(C)O [Example H-24, 1-((2S,3R,4S,6R)-2-(((2R,3S,4R,5R,8R,10R,11R,12S,13S,14R)-2-ethyl-3,4,10-trihydroxy-13-(((2R,4R,5S,6S)-5-hydroxy-5-((isobutylamino)methyl)-4-methoxy-4,6-dimethyltetrahydro-2H-pyran-2-yl)oxy)-3,5,8,10,12,14-hexamethyl-15-oxo-1-oxa-6-azacyclopentadecan-11-yl)oxy)-3-hydroxy-6-methyltetrahydro-2H-pyran-4-yl)-1,3-dimethyl-3-phenylurea] | 30 | > 64 | 16 | 23 |
| CC[C@H]1OC(=O)[C@H](C)[C@@H](O[C@H]2C[C@@](C)(OC)[C@](O)(CNCCS(=O)(=O)c3ccccc3)[C@H](C)O2)[C@H](C)[C@@H](O[C@@H]2O[C@H](C)C[C@H](N(C)C(=O)N(C)c3ccccc3)[C@H]2O)[C@](C)(O)C[C@@H](C)CN[C@H](C)[C@@H](O)[C@]1(C)O [Example H-43, 1-((2S,3R,4S,6R)-2-(((2R,3S,4R,5R,8R,10R,11R,12S,13S,14R)-2-ethyl-3,4,10-trihydroxy-13-(((2R,4R,5S,6S)-5-hydroxy-4-methoxy-4,6-dimethyl-5-(((2-(phenylsulfonyl)ethyl)amino)methyl)tetrahydro-2H-pyran-2-yl)oxy)-3,5,8,10,12,14-hexamethyl-15-oxo-1-oxa-6-azacyclopentadecan-11-yl)oxy)-3-hydroxy-6-methyltetrahydro-2H-pyran-4-yl)-1,3-dimethyl-3-phenylurea] | 29 | > 64 | 16 | 34 |
| CC[C@H]1OC(=O)[C@H](C)[C@@H](O[C@H]2C[C@@](C)(OC)[C@](O)(CN3CCC(S(C)(=O)=O)CC3)[C@H](C)O2)[C@H](C)[C@@H](O[C@@H]2O[C@H](C)C[C@H](N(C)C(=O)N(C)c3ccccc3)[C@H]2O)[C@](C)(O)C[C@@H](C)CN[C@H](C)[C@@H](O)[C@]1(C)O [Example J-21, 1-((2S,3R,4S,6R)-2-(((2R,3S,4R,5R,8R,10R,11R,12S,13S,14R)-2-ethyl-3,4,10-trihydroxy-13-(((2R,4R,5S,6S)-5-hydroxy-4-methoxy-4,6-dimethyl-5-((4-(methylsulfonyl)piperidin-1-yl)methyl)tetrahydro-2H-pyran-2-yl)oxy)-3,5,8,10,12,14-hexamethyl-15-oxo-1-oxa-6-azacyclopentadecan-11-yl)oxy)-3-hydroxy-6-methyltetrahydro-2H-pyran-4-yl)-1,3-dimethyl-3-phenylurea] | 75 | > 64 | 20 | 65 |
| CCCNC[C@]1(O)[C@H](C)O[C@@H](O[C@H]2[C@H](C)[C@@H](O[C@@H]3O[C@H](C)C[C@H](N(C)C(=O)N(C)c4ccncc4C)[C@H]3O)[C@](C)(O)C[C@@H](C)CN[C@H](C)[C@@H](O)[C@](C)(O)[C@@H](CC)OC(=O)[C@@H]2C)C[C@@]1(C)OC [Example H-62, 1-((2S,3R,4S,6R)-2-(((2R,3S,4R,5R,8R,10R,11R,12S,13S,14R)-2-ethyl-3,4,10-trihydroxy-13-(((2R,4R,5S,6S)-5-hydroxy-4-methoxy-4,6-dimethyl-5-((propylamino)methyl)tetrahydro-2H-pyran-2-yl)oxy)-3,5,8,10,12,14-hexamethyl-15-oxo-1-oxa-6-azacyclopentadecan-11-yl)oxy)-3-hydroxy-6-methyltetrahydro-2H-pyran-4-yl)-1,3-dimethyl-3-(3-methylpyridin-4-yl)urea] | 1 | > 64 | <1 | 1 |
| CCCNC[C@]1(O)[C@H](C)O[C@@H](O[C@H]2[C@H](C)[C@@H](O[C@@H]3O[C@H](C)C[C@H](N(Cc4nccs4)C(=O)N(C)c4ccccc4)[C@H]3O)[C@](C)(O)C[C@@H](C)CN[C@H](C)[C@@H](O)[C@](C)(O)[C@@H](CC)OC(=O)[C@@H]2C)C[C@@]1(C)OC [Example H-64, 1-((2S,3R,4S,6R)-2-(((2R,3S,4R,5R,8R,10R,11R,12S,13S,14R)-2-ethyl-3,4,10-trihydroxy-13-(((2R,4R,5S,6S)-5-hydroxy-4-methoxy-4,6-dimethyl-5-((propylamino)methyl)tetrahydro-2H-pyran-2-yl)oxy)-3,5,8,10,12,14-hexamethyl-15-oxo-1-oxa-6-azacyclopentadecan-11-yl)oxy)-3-hydroxy-6-methyltetrahydro-2H-pyran-4-yl)-3-methyl-3-phenyl-1-(thiazol-2-ylmethyl)urea] | 28 | > 64 | 16 | 28 |
| CC[C@H]1OC(=O)[C@H](C)[C@@H](O[C@H]2C[C@@](C)(OC)[C@](O)(CN3CC(F)(F)C3)[C@H](C)O2)[C@H](C)[C@@H](O[C@@H]2O[C@H](C)C[C@H](N(C)C(=O)N(C)c3ccccc3)[C@H]2O)[C@](C)(O)C[C@@H](C)CN[C@H](C)[C@@H](O)[C@]1(C)O [Example J-15, 1-((2S,3R,4S,6R)-2-(((2R,3S,4R,5R,8R,10R,11R,12S,13S,14R)-13-(((2R,4R,5S,6S)-5-((3,3-difluoroazetidin-1-yl)methyl)-5-hydroxy-4-methoxy-4,6-dimethyltetrahydro-2H-pyran-2-yl)oxy)-2-ethyl-3,4,10-trihydroxy-3,5,8,10,12,14-hexamethyl-15-oxo-1-oxa-6-azacyclopentadecan-11-yl)oxy)-3-hydroxy-6-methyltetrahydro-2H-pyran-4-yl)-1,3-dimethyl-3-phenylurea] | 28 | > 64 | 16 | 14 |
| CCCCNC[C@]1(O)[C@H](C)O[C@@H](O[C@H]2[C@H](C)[C@@H](O[C@@H]3O[C@H](C)C[C@H](N(C)C(=O)N(C)c4ccccc4)[C@H]3O)[C@](C)(O)C[C@@H](C)CN[C@H](C)[C@@H](O)[C@](C)(O)[C@@H](CC)OC(=O)[C@@H]2C)C[C@@]1(C)OC [Example H-28, 1-((2S,3R,4S,6R)-2-(((2R,3S,4R,5R,8R,10R,11R,12S,13S,14R)-13-(((2R,4R,5S,6S)-5-((butylamino)methyl)-5-hydroxy-4-methoxy-4,6-dimethyltetrahydro-2H-pyran-2-yl)oxy)-2-ethyl-3,4,10-trihydroxy-3,5,8,10,12,14-hexamethyl-15-oxo-1-oxa-6-azacyclopentadecan-11-yl)oxy)-3-hydroxy-6-methyltetrahydro-2H-pyran-4-yl)-1,3-dimethyl-3-phenylurea] | 8 | > 64 | 17 | 13 |
| CCCNC[C@]1(O)[C@H](C)O[C@@H](O[C@H]2[C@H](C)[C@@H](O[C@@H]3O[C@H](C)C[C@H](N(C)C(=O)N(C)c4nccnn4)[C@H]3O)[C@](C)(O)C[C@@H](C)CN[C@H](C)[C@@H](O)[C@](C)(O)[C@@H](CC)OC(=O)[C@@H]2C)C[C@@]1(C)OC [Example H-56, 1-((2S,3R,4S,6R)-2-(((2R,3S,4R,5R,8R,10R,11R,12S,13S,14R)-2-ethyl-3,4,10-trihydroxy-13-(((2R,4R,5S,6S)-5-hydroxy-4-methoxy-4,6-dimethyl-5-((propylamino)methyl)tetrahydro-2H-pyran-2-yl)oxy)-3,5,8,10,12,14-hexamethyl-15-oxo-1-oxa-6-azacyclopentadecan-11-yl)oxy)-3-hydroxy-6-methyltetrahydro-2H-pyran-4-yl)-1,3-dimethyl-3-(1,2,4-triazin-3-yl)urea] | 6 | > 64 | 18 | 79 |
